Measured values: PMC3711766 (The Journal of neuroscience : the official journal of the …, 2013)
Like-named read-outs stand apart in the source and are kept apart here. Where a SMILES comes first, the peptide text is derived from it. [ ]: non-standard residue; d: D form. The star is where a group is joined. X1 = CN1c2cc3c(cc2C(CS(=O)(=O)[O-])=CC1(C)C)C(c1ccc(C(=O)NCCCCCN2C(=O)CC(*)C2=O)cc1C(=O)O)=c1cc2c(cc1O3)=[N+](C)C(C)(C)C=C2CS(=O)(=O)O

What was measured:
FLAG-MOR [1] = target: T1, FLAG-MOR (Mus musculus, UniProt P42866); assay: Steady state binding of derm A594 in live FLAG-MOR HEK 293 cells
T1 sequence (P42866 whole entry): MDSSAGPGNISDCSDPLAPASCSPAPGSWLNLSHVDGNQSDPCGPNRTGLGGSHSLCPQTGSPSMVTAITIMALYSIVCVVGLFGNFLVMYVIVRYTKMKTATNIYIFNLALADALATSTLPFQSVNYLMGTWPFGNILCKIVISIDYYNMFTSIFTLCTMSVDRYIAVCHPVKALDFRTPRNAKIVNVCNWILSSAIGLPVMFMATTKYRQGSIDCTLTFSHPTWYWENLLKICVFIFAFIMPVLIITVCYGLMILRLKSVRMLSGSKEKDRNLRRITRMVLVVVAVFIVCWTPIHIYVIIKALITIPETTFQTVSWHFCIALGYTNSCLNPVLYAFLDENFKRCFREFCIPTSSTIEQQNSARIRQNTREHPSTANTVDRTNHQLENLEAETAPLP

FLAG-MOR [2] = target: T1, FLAG-MOR; assay: Binding and unbinding kinetics of derm A594 in live FLAG-MOR HEK 293 cells; conditions: for average time constant of association: derm A594 30 nM
FLAG-MOR [3] = target: T1, FLAG-MOR; type: binding; conditions: derm A594 200 nM; ME 30 µM 2 hrs, then ME 3 µM pre pulse
FLAG-MOR [4] = target: T1, FLAG-MOR; type: binding
FLAG-MOR [5] = target: T1, FLAG-MOR; type: binding; remark: listed apart in the source
FLAG-MOR [6] = target: T1, FLAG-MOR; type: cell-based; conditions: ME 1 µM, 5 sec; pertussis toxin 100 ng/mL overnight

C[C@@H](NC(=O)[C@@H](N)Cc1ccc(O)cc1)C(=O)N[C@@H](Cc1ccccc1)C(=O)NCC(=O)N[C@@H](Cc1ccc(O)cc1)C(=O)N1CCC[C@H]1C(=O)N[C@@H](CCCCN)C(=O)N[C@@H](CSC1CC(=O)N(CCCCCNC(=O)c2ccc(C3=c4cc5c(cc4Oc4cc6c(cc43)C(CS(=O)(=O)[O-])=CC(C)(C)N6C)=[N+](C)C(C)(C)C=C5CS(=O)(=O)O)c(C(=O)O)c2)C1=O)C(N)=O (stereo partly drawn) [derm A594, dermorphin Alexa 594] (H-Y[dA]FGYPKC(X1)-NH2; N-terminus assumed)
Hill slope of steady state binding (FLAG-MOR [1]; after ME 30 µM 2 hrs): 1.03±0.3 | Hill slope of steady state binding (FLAG-MOR [1]; untreated live cells): 0.95±.02 | kon (FLAG-MOR [2]): 353000 M⁻¹ s⁻¹ | decrease of koff after ME treatment (FLAG-MOR [2]; ME 30 µM 2 hr vs untreated): approximately 6 fold | decrease of kon after ME treatment (FLAG-MOR [2]; ME 30 µM 2 hr vs untreated): about 40% | average time constant of association (FLAG-MOR [2]; ME treated cells (30 µM 2 hr)): 51.5 ± 7.8 s | average time constant of association (FLAG-MOR [2]; untreated cells): 11.4 ± 0.4 s | time constant of dissociation from the receptor (FLAG-MOR [2]; live cells): ~10 s | koff (FLAG-MOR [2]; read-out: koff (intercept of linear fit)): 0.011 s⁻¹ | relative amount of derm A594 bound after 1 min (R/G) (FLAG-MOR [3]): 0.95±0.08 | fraction derm A594 remaining after 3 min (FLAG-MOR [4]; WT MEF cells, untreated): 0.09±0.01 | fraction derm A594 remaining after 3 min (FLAG-MOR [4]; β-arr 1/2 k.o. MEF cells, untreated): 0.13±0.02

COc1ccc2c3c1O[C@H]1C(=O)CC[C@@]4(O)[C@@H](C2)N(C)CC[C@]314 [oxycodone]
fraction derm A594 remaining after 3 min (FLAG-MOR [5]): 0.23±0.01

pertussis toxin [reference compound]
GIRK current (FLAG-MOR [6]): 3.3±6.8 pA | fraction derm A594 remaining after 3 min (FLAG-MOR [4]; β-arr 1/2 k.o. MEF cells, pertussis toxin 100 ng/ml overnight, no ME): 0.12±0.02
